Experiments:
[1] = molecular target: T1, Transient receptor potential cation channel subfamily A member 1 (Homo sapiens, UniProt O75762); assay: Agonist activity at TRPA1 (unknown origin) by calcium imaging assay relative to allyl isothiocyanate; parameters: concentration or dose not given beside the values; conditions: filed as agonist
[2] = molecular target: T1, Transient receptor potential cation channel subfamily A member 1; assay: Agonist activity at TRPA1 (unknown origin) by calcium imaging assay

T1 sequence (O75762 whole entry): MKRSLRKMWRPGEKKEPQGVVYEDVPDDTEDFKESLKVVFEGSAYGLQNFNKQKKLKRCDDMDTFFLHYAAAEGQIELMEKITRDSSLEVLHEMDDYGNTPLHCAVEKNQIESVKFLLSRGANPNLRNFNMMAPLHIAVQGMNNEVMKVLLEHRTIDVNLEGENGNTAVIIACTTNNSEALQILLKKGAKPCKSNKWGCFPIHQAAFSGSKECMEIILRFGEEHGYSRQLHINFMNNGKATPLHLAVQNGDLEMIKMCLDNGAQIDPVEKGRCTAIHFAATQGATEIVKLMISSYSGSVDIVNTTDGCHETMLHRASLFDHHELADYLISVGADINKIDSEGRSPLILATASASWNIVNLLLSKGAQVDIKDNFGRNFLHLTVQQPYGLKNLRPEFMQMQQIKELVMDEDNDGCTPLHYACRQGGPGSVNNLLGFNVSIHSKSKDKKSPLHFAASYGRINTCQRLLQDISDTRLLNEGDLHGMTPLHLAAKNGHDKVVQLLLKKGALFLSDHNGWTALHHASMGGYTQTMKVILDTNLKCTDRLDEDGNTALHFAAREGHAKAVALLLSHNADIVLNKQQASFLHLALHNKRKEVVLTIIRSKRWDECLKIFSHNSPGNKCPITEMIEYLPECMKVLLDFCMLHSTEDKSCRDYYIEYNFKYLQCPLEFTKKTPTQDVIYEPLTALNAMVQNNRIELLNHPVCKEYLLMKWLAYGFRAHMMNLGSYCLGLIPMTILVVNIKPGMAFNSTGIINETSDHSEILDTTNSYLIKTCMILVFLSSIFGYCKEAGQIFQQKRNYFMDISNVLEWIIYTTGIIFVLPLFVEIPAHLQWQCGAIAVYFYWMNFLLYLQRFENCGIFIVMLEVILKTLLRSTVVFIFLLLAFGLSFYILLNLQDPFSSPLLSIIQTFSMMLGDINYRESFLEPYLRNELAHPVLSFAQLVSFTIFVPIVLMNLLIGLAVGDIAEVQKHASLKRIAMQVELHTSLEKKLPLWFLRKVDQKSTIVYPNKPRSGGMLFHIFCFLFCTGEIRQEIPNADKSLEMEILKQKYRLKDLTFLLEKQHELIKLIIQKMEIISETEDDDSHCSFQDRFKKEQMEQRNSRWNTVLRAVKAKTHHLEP

| Structure (SMILES) | Activity [1] | EC50 [2] |
| --- | --- | --- |
| CCc1ccc(O)c(OC)c1 | 74% | 101 µM |
| COc1cc(C(=O)C(O)CO)ccc1O (stereo not drawn) | 63% | – |
| Cc1cccc(O)c1C | 82% | 86 µM |
| CCc1ccc(O)c(O)c1 | 99% | 8.69 µM |
| Cc1ccc(O)c(O)c1 | 107% | 11.7 µM |
| C=CCc1ccc(O)c(OC)c1 [EUGENOL] | 122% | 116 µM |
| Cc1ccc(C(C)C)c(O)c1 | 140% | – |
| COc1cc(O)c(CC=C(C)C)c2c1C(=O)CC(c1ccc(O)cc1)O2 (stereo not drawn) | 90% | – |
| Cc1cccc(O)c1O | 151% | 2.83 µM |
| c1ccc2[nH]ccc2c1 [INDOLE] | 111% | 75.2 µM |
| C=Cc1ccc(O)c(OC)c1 | 50% | 82.8 µM |
| Oc1ccccc1Cl [2-CHLOROPHENOL] | 54% | 501 µM |
| C/C=C/c1ccc(O)c(OC)c1 | 139% | 149 µM |

From ChEMBL document CHEMBL4673264, “Discovery of natural TRPA1 activators through pharmacophore-based virtual screening and a biological assay” (Bioorg Med Chem Lett, 2021)
